Experimental data from patent publication US7728029B2, “Adamantyl-pyrazole carboxamides as inhibitors of 11β-hdroxysteroid dehydrogenase” (Hoffmann-La Roche Inc., priority 2006, dated 2010).

Assays:
human 11-β-HSD1 = target: T1, human 11-β-HSD1 (Homo sapiens, UniProt P28845); experiment: Human H4IIE Assay: steroid conversion assay in H4IIe cells stably transfected with human 11-β-HSD1 cDNA, cortisol by ELISA; format: cell-based; details: H4IIe cells transfected with human 11-β-HSD1; 200 nM cortisone, 120 minutes; read-out: HumH4IIe (IC50)
T1 construct: expressed in transfected cells; host or cells: H4IIe
Description: H4IIe cells stably transfected with the human 11-β-HSD1 cDNA (humH4IIe) were maintained in Dulbeccos Modified Essential Medium (DMEM)+10% fetal bovine serum (FBS) containing Penicillin (100 IU/ml) and Streptomycin (100 μg/ml), Geneticin (800 μg/ml) and L-Glutamine (2 mM) at 37° C. in a humidified atmosphere (95% air, 5% CO2).
humH4IIe cells at 80% confluence in a 225 cm^2 flask were washed with PBS then detached with warm Trypsin/EDTA. The cells were counted and resuspended in Dulbeccos Modified Essential Medium lacking phenol red (DMEM) containing 2% stripped serum, at a concentration of 100,000 cells per 200 μl, and plated in a 96-well cell culture plate (precoated with Poly-Lysine). The cells were incubated overnight at 37° C. in a humidified atmosphere (95% air, 5% CO2).
Conversion assays were performed one day after seeding 96-well plates. The media was removed and replaced with 100 ul Dulbeccos Modified Essential Medium without phenol red (DMEM) containing 2 mg/ml Bovine Serum Albumin (BSA)+1% DMSO or test compound dissolved in DMSO.
The cells were incubated with test compound for 60 minutes at 37° C. in a humidified atmosphere (95% air, 5% CO2). After 60 minutes, cortisone was added to 200 nM final, and the cells were incubated for 120 minutes at 37° C. in a humidified atmosphere (95% air, 5% CO2).
The reaction was stopped by transferring 80 μl of media to an empty 96-well plate. Samples were stored at −20° C. until assayed for cortisol concentration using an ELISA method.

human 11betaHSD1 = target: T2, human 11betaHSD1 (Homo sapiens, UniProt P28845); experiment: Human Hek Assay: cortisone to cortisol conversion in HEK-293 cells stably transfected with human 11betaHSD1, cortisol by ELISA; format: cell-based; details: HEK-293 cells transfected with human 11betaHSD1; 100 nM cortisone, 1 hour; read-out: humHEK (IC50)
T2 construct: stably transfected with full-length human 11betaHSD1 cDNA; expressed in transfected cells; host or cells: HEK-293
Description: HEK-293 cells stably transfected with full-length human 11betaHSD1 cDNA were propagated and expanded in DMEM high glucose media (Invitrogen Cat# 11995-065), supplemented with 10% FCS (Invitrogen Cat# 10082-147), pen/strep (10 μg/mL), and geneticin (10 μg/mL). One day prior to assay, cells were released from flasks using trypsin/EDTA, centrifuged, and washed with plating media (DMEM high glucose, without phenol red; Invitrogen Cat# 21063-029, supplemented with 2% charcoal stripped FCS; Gemini Cat# A22311P). From a 250,000 cells/mL suspension in plating media, 200 μL of cells were seeded into each well of a 96-well coated plate (BioCoat Cat#356461) and cultured overnight at 37° C. The following day, serially diluted 11betaHSD1 inhibitor compounds dissolved in DMSO were added to plating media supplemented with BSA (2 mg/mL final). The final DMSO concentration was 1%. Media was aspirated from plates, and compounds in media were added to each well. The plates were incubated at 37 degrees C. for 1 hour to allow for cellular uptake of compounds. 10 μL of substrate (cortisone) was then added to each well (100 nM final concentration) and incubated for 1 hour at 37 degrees C. Plates were then transferred to ice and 80 μL of media transferred to a 96-well plate and stored at −30° C.
Quantitation of cortisol in cell media was performed by competitive ELISA using ELISA-Light (Tropix Cat# T10206/EL100S4), anti-cortisol EIA antibody (Assay Designs, Inc. Cat#80-1148), and cortisol-enzyme conjugate (Assay Designs, Inc. Cat# 80-1147). 384-well plates (Falcon Cat#3988) were precoated with anti-mouse IgG (Sigma Cat# M-1397) suspended in 0.9% NaCl (5 mg/mL), 50 μL per well, overnight at 4 degrees C. Plates were washed with PBS, 0.1% Tween-20, then washed with PBS alone. Plates were blocked with Blocking Buffer (Tropix Cat# AI075) for 2 hours at room temperature. The plates were then washed as previously described. Assay samples were thawed, diluted 1:4 in DMEM, 2 mg/mL BSA, 1% DMSO, and 24 μL was transferred to wells of a pre-coated 384-well plate, as well as varying amounts of cortisol standard. To each well, 12 μL of cortisol-conjugate and 12 μL of anti-cortisol EIA antibody were added and incubated 2 hrs at room temperature on a orbital plate shaker. The wells were then emptied by inversion, then washed three times with 100 μL of Wash Buffer (Tropix), and then 2 times with 100 μL of Assay Buffer (Tropix). 60 μL of CDP-STAR (Tropix) was added to each well and incubated 10 minutes at room temperature. Chemiluminescence was measured using a Victor V Reader (Perkin Elmer). Cortisol in each sample was interpolated from a standard curve generated with known amounts of cortisol. IC50 values were calculated using the curve fitting software XLFit3 (IDBS).

T2 sequence (P28845 whole entry): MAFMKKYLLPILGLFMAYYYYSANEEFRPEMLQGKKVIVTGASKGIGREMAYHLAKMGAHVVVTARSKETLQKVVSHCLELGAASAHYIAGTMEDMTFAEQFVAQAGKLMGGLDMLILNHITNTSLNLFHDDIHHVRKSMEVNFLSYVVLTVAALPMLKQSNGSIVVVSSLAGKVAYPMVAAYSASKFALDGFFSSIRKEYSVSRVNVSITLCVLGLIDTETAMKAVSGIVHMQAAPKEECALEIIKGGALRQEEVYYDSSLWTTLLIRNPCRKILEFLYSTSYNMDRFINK
T1 sequence (P28845 whole entry): as above

IC50 (human 11-β-HSD1) [nM]	IC50 (human 11betaHSD1) [nM]	Molecule
0.6	22.9	trans-2′-(2-Methoxyethyl)-2′H-[1,3′]bipyrazolyl-4′-carboxylic acid (5-hydroxy-adamantan-2-yl-amide [Example 73]
	39.9	Cn1ncc(C(=O)NC2C3CC4CC2CC(O)(C4)C3)c1-n1cccc1 (stereo not shown) [Example 1, 1-methyl-5-pyrrol-1-yl-1H-pyrazole-4-carboxylic acid (5-hydroxy-adamantan-2-yl)-amide]
	16.6	Cn1ncc(C(=O)NC2C3CC4CC(C3)CC2C4)c1N1CCOCC1 (stereo not shown) [Example 22, 1-methyl-5-morpholin-4-yl-1H-pyrazole-4-carboxylic acid adamantan-2-ylamide]
5.6	19.2	CC(C)(C)n1ncc(C(=O)N[C@H]2C3CC4CC2C[C@](O)(C4)C3)c1Cl [Example 34, trans-1-tert-Butyl-5-chloro-1H-pyrazole-4-carboxylic acid (5-hydroxy-adamantan-2-yl)-amide]
6	76.9	Cn1ncc(C(=O)NC2C3CC4CC2CC(NS(C)(=O)=O)(C4)C3)c1-n1cccn1 (stereo not drawn) [Example 53, trans-2′-Methyl-2′H-[1,3′]bipyrazolyl-4′-carboxylic acid (5-methanesulfonylamino-adamantan-2-yl)-amide]
	22.2	Cn1ncc(C(=O)N[C@H]2C3CC4CC2C[C@](O)(C4)C3)c1-n1cccc1 [Example 2, trans-1-Methyl-5-pyrrol-1-yl-1H-pyrazole-4-carboxylic acid (5-hydroxy-adamantan-2-yl)-amide]
	601	CC(C)(C)n1ncc(C(=O)N[C@H]2C3CC4CC2C[C@](O)(C4)C3)c1C(F)(F)F [Example 7, trans-1-tert-butyl-5-trifluoromethyl-1H-pyrazole-4-carboxylic acid (5-hydroxy-adamantan-2-yl)-amide]
8.5	66.2	CC(=O)NC12CC3CC(C1)C(NC(=O)c1cnn(C(C)(C)C)c1Cl)C(C3)C2 (stereo not drawn) [Example 46, trans-1-tert-Butyl-5-chloro-1H-pyrazole-4-carboxylic acid (5-acetylamino-adamantan-2-yl)-amide]
15.3		COCCOCCn1ncc(C(=O)N[C@H]2C3CC4CC2C[C@](O)(C4)C3)c1-n1cccn1 [Example 76, trans-2′-[2-(2-Methoxyethoxy)-ethyl]-2′H-[1,3′]bipryazolyl-4′-carboxylic acid (5-hydroxyadamantan-2-yl)-amide]
	23.3	CN1CCN(c2c(C(=O)NC3C4CC5CC(C4)CC3C5)cnn2C)CC1 (stereo not shown) [Example 14, 1-Methyl-5-(4-methyl-piperazin-1-yl)-1H-pyrazole-4-carboxylic acid adamantan-2-ylamide]
	71.5	COCCNc1c(C(=O)NC2C3CC4CC(C3)CC2C4)cnn1C (stereo not shown) [Example 23, 5-(2-Methoxy-ethylamino)-1-methyl-1H-pyrazole-4-carboxylic acid adamantan-2-ylamide]
	6.8	CC(C)(C)n1ncc(C(=O)NC2C3CC4CC(C3)CC2C4)c1-n1cccn1 (stereo not shown) [Example 33, 2′-tert-Butyl-2′H-[1,3′]bipyrazolyl-4′-carboxylic acid adamantan-2-ylamide]
	20.2	CC(C)(C)n1ncc(C(=O)N[C@H]2C3CC4CC2C[C@@](O)(C4)C3)c1C(F)(F)F [Example 8, cis-1-tert-butyl-5-trifluoromethyl-1H-pyrazole-4-carboxylic acid (5-hydroxy-adamantan-2-yl)-amide]
0.5	20	CC(C)(C)n1ncc(C(=O)N[C@H]2C3CC4CC2C[C@](O)(C4)C3)c1-n1cccn1 [Example 35, trans-2′-tert-Butyl-2′H-[1,3′]bipyrazolyl-4′-carboxylic acid (5-hydroxy-adamantan-2-yl)-amide]
0.3	18.1	CC(=O)NC12CC3CC(C1)C(NC(=O)c1cnn(C(C)(C)C)c1C(F)(F)F)C(C3)C2 (stereo not drawn) [Example 48, trans-1-tert-Butyl-5-trifluoromethyl-1H-pyrazole-4-carboxylic acid (5-acetylamino-adamantan-2-yl)-amide]
5.9	48.2	trans-2′-Methyl-2′H-[1,3′]bipyrazolyl-4′-carboxylic acid (5-acetylamino-adamantan-2-yl)-amide [Example 45]
	189	Cn1ncc(C(=O)NC2C3CC4CC(C3)CC2C4)c1Cl (stereo not shown) [Example 5, 5-Chloro-1-methyl-1H-pyrazole-4-carboxylic acid adamantan-2-ylamide]
	9.8	CC(C)(C)n1ncc(C(=O)NC2C3CC4CC(C3)CC2C4)c1C(F)(F)F (stereo not shown) [Example 6, 1-tert-butyl-5-trifluoromethyl-1H-pyrazole-4-carboxylic acid adamantan-2-ylamide]
8	23.8	CC(=O)NC12CC3CC(C1)C(NC(=O)c1cnn(C(C)(C)C)c1-n1cccn1)C(C3)C2 (stereo not drawn) [Example 50, trans-2′-tert-Butyl-2′H-[1,3′]bipyrazolyl-4′-carboxylic acid (5-acetylamino-adamantan-2-yl)-amide]
	38.6	Cn1ncc(C(=O)N[C@H]2C3CC4CC2C[C@](O)(C4)C3)c1-n1cccn1 [Example 9, trans-2′-Methyl-2′H-[1,3′]bipyrazolyl-4′-carboxylic acid (5-hydroxy-adamantan-2-yl)-amide]

Molecule	IC50 (human 11-β-HSD1) [nM]	IC50 (human 11betaHSD1) [nM]
CC(C)(C)OCCn1ncc(C(=O)N[C@H]2C3CC4CC2C[C@](O)(C4)C3)c1C(F)(F)F [Example 77, trans-1-(2-tert-Butoxyethyl)-5-trifluoromethyl-1H-pyrazole-4-carboxylic acid (5-hydroxy-adamantan-2-yl)-amide]	4.6	
O=C(NC1C2CC3CC(C2)CC1C3)c1cnn(C2CC2)c1C(F)(F)F (stereo not shown) [Example 12, 1-cyclopropyl-5-trifluoromethyl-1H-pyrazole-4-carboxylic acid adamantan-2-ylamide]		22.2
COCCN(C)c1c(C(=O)NC2C3CC4CC(C3)CC2C4)cnn1C (stereo not shown) [Example 32, 5-[(2-Methoxy-ethyl)-methyl-amino]-1-methyl-1H-pyrazole-4-carboxylic acid adamantan-2-ylamide]		26.2
